In patent US12091425B2 (AMGEN INC., priority 2016, dated 2024):

target: T1, Mcl-1/Bim interaction, recombinant human Mcl-1 (171-327) (Homo sapiens, UniProt Q07820); assay: Cell free Mcl-1: Bim Affinity Assay (Mcl-1 HTRF); type: binding; conditions: TR-FRET, 0.1 nM Mcl-1 (171-327), 0.05 nM biotin-Bim (51-76)
T1 construct: made in house
In short: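 Read-out is time-resolved FRET after overnight incubation, using a biotin-labelled peptide from human Bim (51-76) as the binding partner; IC50 was derived from competition curves.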

T1 sequence (Q07820 171-327): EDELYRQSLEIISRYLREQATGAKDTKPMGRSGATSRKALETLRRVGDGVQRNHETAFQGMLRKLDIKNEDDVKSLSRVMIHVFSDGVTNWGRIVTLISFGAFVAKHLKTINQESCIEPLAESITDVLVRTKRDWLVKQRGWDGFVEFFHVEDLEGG

Row | SMILES | IC50 [nM]
1 | CC[C@@H]1CC[C@@H](O)/C=C/[C@@H]2CC[C@H]2CN2C[C@@]3(CCCc4cc(Cl)ccc43)COc3ccc(cc32)C(=O)NS1(=O)=O (single isomer, unassigned) [Example 198] | 3.24
2 | CC[C@@H]1CCCC[C@H](OCC(=O)O)[C@@H]2CC[C@H]2CN2C[C@@]3(CCCc4cc(Cl)ccc43)COc3ccc(cc32)C(=O)NS1(=O)=O [Example 994, (((1S,3′R,6′R,7′S,12′R)-6-chloro-12′-ethyl-13′,13′-dioxido-15′-oxo-3,4-dihydro-2H-spiro[naphthalene-1,22′-[20]oxa[13]thia[1,14]diazatetracyclo[14.7.2.0^3,6.0^19,24]pentacosa [16,18,24]trien]-7′-yl)oxy)acetic Acid] | 0.221
3 | CC[C@@H]1CC/C=C/[C@H](NC(=O)C(C)C)[C@@H]2CC[C@H]2CN2C[C@@]3(CCCc4cc(Cl)ccc43)COc3ccc(cc32)C(=O)NS1(=O)=O [Example 1077, N-((1S,3′R,6′R,7′S,8′E,12′R)-6-chloro-12′-ethyl-13′,13′-dioxido-15′-oxo-3,4-dihydro-2H-spiro[naphthalene-1,22′-[20]oxa[13]thia[1,14]diazatetracyclo[14.7.2.0^3,6.0^19,24]pentacosa [8,16,18,24]tetraen]-7′-yl)-2-methylpropanamide] | 3.45
4 | C[C@@H]1[C@@H](C)C[C@H](CCN2CCOCC2)/C=C/[C@@H]2CC[C@H]2CN2C[C@@]3(CCCc4cc(Cl)ccc43)COc3ccc(cc32)C(=O)NS1(=O)=O [Example 115, (1S,3′R,6′S,7′E,9′R,11′S,12′R)-6-chloro-11′,12′-dimethyl-9′-(2-(4-morpholinyl)ethyl)-3,4-dihydro-2H,15′H-spiro[naphthalene-1,22′-[20]oxa[13]thia[1,14]diazatetracyclo[14.7.2.0^3,6.0^19,24]pentacosa[7,16,18,24]tetraen]-15′-one 13′,13′-dioxide] | 2.71
5 | CC(=O)N1C[C@@H]2C/C=C/[C@H](O)[C@@H]3CC[C@H]3CN3C[C@@]4(CCCc5cc(Cl)ccc54)COc4ccc(cc43)C(=O)NS(=O)(=O)[C@H]2C1 (single isomer, unassigned) [Example 339] | 2.71
6 | CC[C@@H]1CC/C=C/[C@H](OCC(=O)OC)[C@@H]2CC[C@H]2CN2C[C@@]3(CCCc4cc(Cl)ccc43)COc3ccc(cc32)C(=O)NS1(=O)=O [Example 991, methyl (((1S,3′R,6′R,7′S,8′E,12′R)-6-chloro-12′-ethyl-13′,13′-dioxido-15′-oxo-3,4-dihydro-2H-spiro[naphthalene-1,22′-[20]oxa[13]thia[1,14]diazatetracyclo[14.7.2.0^3,6.0^19,24]pentacosa [8,16,18,24]tetraen]-7′-yl)oxy)acetate] | 0.644
7 | O=C1NS(=O)(=O)CCCCNC(=O)[C@@H]2CC[C@H]2CN2C[C@@]3(CCCc4cc(Cl)ccc43)COc3ccc1cc32 [Example 98, (1S,3′R,6′R)-6-chloro-3,4-dihydro-2H,7′H,15′H-spiro[naphthalene-1,22′-[20]oxa[13]thia[1,8,14]triazatetracyclo[14.7.2.0^3,6.0^19,24]pentacosa[16,18,24]triene]-7′,15′-dione 13′,13′-dioxide] | 15.5
8 | CO[C@@H]1CCCCS(=O)(=O)NC(=O)c2ccc3c(c2)N(C[C@@H]2CC[C@H]21)C[C@@]1(CCCc2cc(Cl)ccc21)CO3 [Example 226] | 25.6
9 | C/C=C/C1CC(=O)[C@@H]2CC[C@H]2CN2C[C@@]3(CCCc4cc(Cl)ccc43)COc3ccc(cc32)C(=O)NS(=O)(=O)[C@H](C)[C@@H](C)C1 (stereo in doubt) [Example 353, (1S,3′R,6′R,9′S,11′S,12′R)-6-chloro-11′,12′-dimethyl-9′-((1E)-1-propen-1-yl)-3,4-dihydro-2H,7′H,15′H-spiro[naphthalene-1,22′-[20]oxa[13]thia[1,14]diazatetracyclo[14.7.2.0^3,6.0^19,24]pentacosa [16,18,24]triene]-7′,15′-dione 13′,13′-dioxide] | 9.09
10 | CCN1CCCC[C@H](O)[C@@H]2CC[C@H]2CN2C[C@@]3(CCCc4cc(Cl)ccc43)COc3ccc(cc32)C(=O)NS1(=O)=O [Example 86, (1S,3′R,6′R,7′S)-6-chloro-12′-ethyl-7′-hydroxy-3,4-dihydro-2H,15′H-spiro[naphthalene-1,22′-[20]oxa[13]thia[1,12,14]triazatetracyclo[14.7.2.0^3,6.0^19,24]pentacosa[16,18,24]trien]-15′-one 13′,13′-dioxide] | 4.04
11 | CC[C@@H]1CC/C=C\[C@@H](NC(=O)C(C)C)[C@@H]2CC[C@H]2CN2C[C@@]3(CCCc4cc(Cl)ccc43)COc3ccc(cc32)C(=O)NS1(=O)=O [Example 1082] | 18
12 | CCOC[C@H]1CC/C=C/[C@H](O)[C@@H]2CC[C@H]2CN2C[C@@]3(CCCc4cc(Cl)ccc43)COc3ccc(cc32)C(=O)NS1(=O)=O (single isomer, unassigned) [Example 440] | 2.44

Other lines, results leading:

Row | IC50 [nM] | SMILES
13 | 2.06 | O=C1NS(=O)(=O)C[C@H](CO)C/C=C/[C@H](O)[C@@H]2CC[C@H]2CN2C[C@@]3(CCCc4cc(Cl)ccc43)COc3ccc1cc32 [Example 1085, (1S,3′R,6′R,7′S,8′E,11′S)-6-chloro-7′-hydroxy-11′-(hydroxymethyl)-3,4-dihydro-2H,15′H-spiro [naphthalene-1,22′-[20]oxa[13]thia[1,14]diazatetracyclo[14.7.2.0^3,6.0^19,24]pentacosa [8,16,18,24]tetraen]-15′-one 13′,13′-dioxide]
14 | 7.07 | O=C1NS(=O)(=O)C/C=C/[C@H](O)[C@@H]2CC[C@H]2CN2C[C@@]3(CCCc4cc(Cl)ccc43)COc3ccc1cc32 [Example 341, (1S,3′R,6′R,7′S,8′E)-6-chloro-7′-hydroxy-3,4-dihydro-2H,13′H-spiro[naphthalene-1,20′-[18]oxa[11]thia[1,12]diazatetracyclo[12.7.2.0^3,6.0^17,22]tricosa[8,14,16,22]tetraen]-13′-one 11′,11′-dioxide]
15 | 3.77 | CN(C)C(=O)[C@H]1CC/C=C/[C@H](O)[C@@H]2CC[C@H]2CN2C[C@@]3(CCCc4cc(Cl)ccc43)COc3ccc(cc32)C(=O)NS1(=O)=O (single isomer, unassigned) [Example 437]

same assay, conditions: cell free Mcl-1:Bim TR-FRET, recombinant human Mcl-1 (171-327)

Row | SMILES | IC50 [nM]
16 | O=C1NS(=O)(=O)C[C@@H]2C[C@@H]2CC[C@H](O)[C@@H]2CC[C@H]2CN2C[C@@]3(CCCc4cc(Cl)ccc43)COc3ccc1cc32.O=C1NS(=O)(=O)C[C@H]2C[C@H]2CC[C@H](O)[C@@H]2CC[C@H]2CN2C[C@@]3(CCCc4cc(Cl)ccc43)COc3ccc1cc32 (mixture of isomers) [Example 787] | 21.4
17 | COC[C@H]1C/C=C/[C@H](O)[C@@H]2CC[C@H]2CN2C[C@@]3(CCCc4cc(Cl)ccc43)COc3ccc(cc32)C(=O)NS1(=O)=O (single isomer, unassigned) [Example 772] | 5.2
18 | CC#CC1=CC(O)CCC(C)S(=O)(=O)NC(=O)c2ccc3c(c2)N(CC2CCC12)CC1(CCCc2cc(Cl)ccc21)CO3 (single isomer, unassigned) [Example 606] | 13.5
19 | O=C1NS(=O)(=O)CCCCC(O)CC2CCC2CN2CC3(CCCc4cc(Cl)ccc43)COc3ccc1cc32 (single isomer, unassigned) [Example 881, (1S,3′R,6′S,8′S)-6-chloro-8′-hydroxy-3,4-dihydro-2H,15′H-spiro[naphthalene-1,22′-[20]oxa[13]thia[1,14]diazatetracyclo[14.7.2.0^3,6.0^19,24]pentacosa[16,18,24]trien]-15′-one 13′,13′-dioxide or (1S,3′R,6′S,8′R)-6-chloro-8′-hydroxy-3,4-dihydro-2H,15′H-spiro[naphthalene-1,22′-[20]oxa[13]thia[1,14]diazatetracyclo[14.7.2.0^3,6.0^19,24]pentacosa[16,18,24]trien]-15′-one 13′,13′-dioxide] | 22.2
20 | O=C(C[C@@H]1CC/C=C/[C@H](O)[C@@H]2CC[C@H]2CN2C[C@@]3(CCCc4cc(Cl)ccc43)COc3ccc(cc32)C(=O)NS1(=O)=O)Nc1cccc(Cl)c1 (single isomer, unassigned) [Example 627] | 10.1

Now from value to compound:

Row | IC50 [nM] | SMILES
21 | 9.53 | O=C1NS(=O)(=O)CCOC[C@@H](O)[C@@H]2CC[C@H]2CN2C[C@@]3(CCCc4cc(Cl)ccc43)COc3ccc1cc32 (single isomer, unassigned) [Example 866, (3R,6R,7S,21S)-6′-chloro-7-hydroxy-3′,4′-dihydro-2′H,14H-spiro[9,19-dioxa-12-thia-1,13-diazatetracyclo[13.7.2.0^3,6.0^18,23]tetracosa-15,17,23-triene-21,1′-naphthalen]-14-one 12,12-dioxide or (3R,6R,7R,21S)-6′-chloro-7-hydroxy-3′,4′-dihydro-2′H,14H-spiro[9,19-dioxa-12-thia-1,13-diazatetracyclo[13.7.2.0^3,6.0^18,23]tetracosa-15,17,23-triene-21,1′-naphthalen]-14-one 12,12-dioxide]
22 | 2.24 | CCC1CCCC(O)C2CCC2CN2CC3(CCCc4cc(Cl)ccc43)COc3ccc(cc32)C(=O)NS1(=O)=O (single isomer, unassigned) [Example 768]
23 | 1.54 | O=C1NS(=O)(=O)C/C=C/CC[C@H](O)[C@@H]2CC[C@H]2CN2C[C@@]3(CCCc4cc(Cl)ccc43)COc3ccc1cc32 [Example 808, (1S,3′R,6′R,7′S,10′E)-6-chloro-7′-hydroxy-3,4-dihydro-2H,15′H-spiro[naphthalene-1,22′-[20]oxa[13]thia[1,14]diazatetracyclo[14.7.2.0^3,6.0^19,24]pentacosa [10,16,18,24]tetraen]-15′-one 13′,13′-dioxide]
24 | 10.5 | O=C1NS(=O)(=O)CCOC/C=C/C2CCC2CN2C[C@@]3(CCCc4cc(Cl)ccc43)COc3ccc1cc32 (stereo in doubt) [Example 826, (3S,6R,7E,22S)-6′-chloro-3′,4′-dihydro-2′H,15H-spiro[10,20-dioxa-13-thia-1,14-diazatetracyclo[14.7.2.0^3,6.0^19,24]pentacosa-7,16,18,24-tetraene-22,1′-naphthalen]-15-one 13,13-dioxide]
25 | 2.55 | C[C@@H]1[C@@H](O)C/C=C/C[C@@H]2CC[C@H]2CN2C[C@@]3(CCCc4cc(Cl)ccc43)COc3ccc(cc32)C(=O)NS1(=O)=O (single isomer, unassigned) [Example 504]
